Earlier results on six molecules are cited in EP4659595A1, “NICOTINE-POLYMER COMPLEX COMPRISING MULTIPLE NICOTINE FORMS” (Nicoventures Trading Limited, priority 2024, dated 2025).

For series [1] the following is noted: fats, alcohols, water.
For series [2] the following is noted: when isolated; converts via isomerization into trans-bixin (β-bixin).
The conditions of series [3]: partition coefficient between octanol and water; source of values not stated.

For the molecule `CC(/C=C/C=C(C)/C=C/C(=O)O)=C\C=C\C=C(C)\C=C\C=C(C)\C=C\C(=O)O` (stereo in doubt) [norbixin, (2E,4E,6E,8E,10E,12E,14E,16E,18E)-4,8,13,17-tetramethylicosa-2,4,6,8,10,12,14,16,18-nonaenedioic acid], in series [1], the solubility result is “water soluble”.

For the molecule `COC(=O)/C=C/C(C)=C\C=C\C(C)=C\C=C\C=C(C)\C=C\C=C(C)\C=C\C(=O)O` [bixin, (2E,4E,6E,8E,10E,12E,14E,16Z,18E)-20-methoxy-4,8,13,17-tetramethyl-20-oxoicosa-2,4,6,8,10,12,14,16,18-nonaenoic acid], the solubility entry in series [1] was “soluble in fats and alcohols but insoluble in water”. The chemical stability result in series [2] is on record as “chemically unstable when isolated”.

Broadly, the logP is the decadic logarithm of the partition coefficient of the neutral form, usually between octanol and water. On to `CC(C)[C@@H]1CC[C@@H](C)C[C@H]1OC(=O)CCC(=O)O` [monomenthyl succinate], for which the logP in series [3] is 3.

With ethyl benzoic acid, in series [3], the lipophilicity (logP) was 2.9.

Turning to isopropyl benzoic acid, the logP in series [3] is on record as 3.5.

On to tocopherol succinate, for which, in series [3], the logP is recorded as 10.2.
